According to article PMC5218480 (PLoS ONE, 2017):

Test system: MV-4-11 cells
Assay: Gene expression microarray analysis (Affymetrix PrimeView) and GSEA
Type: cell-based, human
Parameters: RFU PODN (11730768_x_at) / Fold change /veh PODN (11730768_x_at) / RFU LINC00158 (11744669_a_at) / Fold change /veh LINC00158 (11744669_a_at) / RFU DUSP10 (11751237_a_at) / Fold change /veh DUSP10 (11751237_a_at) / RFU ID3 (11757404_x_at) / Fold change /veh ID3 (11757404_x_at) / RFU PLEKHG5 (11737974_s_at) / Fold change /veh PLEKHG5 (11737974_s_at) / RFU LRRC4B (11730491_at) / Fold change /veh LRRC4B (11730491_at) / RFU GIMAP4 (11747438_a_at) / Fold change /veh GIMAP4 (11747438_a_at) / RFU KRT8 (11758183_x_at) / Fold change /veh KRT8 (11758183_x_at) / RFU CNN1 (11734310_a_at) / Fold change /veh CNN1 (11734310_a_at) / RFU VPS37D (11726825_at) / Fold change /veh VPS37D (11726825_at) / RFU C10orf10 (11716522_x_at) / Fold change /veh C10orf10 (11716522_x_at) / RFU KIR2DL2 /// KIR2DL4 /// KIR2DL5A /// KIR2DL5B /// KIR2DS1 /// KIR2DS2 /// KIR2DS3 /// KIR2DS4 /// KIR3DL3 /// KIR3DL3 /// KIR3DS1 (11738374_at) / Fold change /veh KIR2DL2 /// KIR2DL4 /// KIR2DL5A /// KIR2DL5B /// KIR2DS1 /// KIR2DS2 /// KIR2DS3 /// KIR2DS4 /// KIR3DL3 /// KIR3DL3 /// KIR3DS1 (11738374_at) / RFU C1QL1 (11718748_at) / Fold change /veh C1QL1 (11718748_at) / RFU TMPRSS4 (11747572_a_at) / Fold change /veh TMPRSS4 (11747572_a_at) / RFU HAMP (11756126_x_at) / Fold change /veh HAMP (11756126_x_at) / RFU RNFT2 (11725882_a_at) / Fold change /veh RNFT2 (11725882_a_at) / RFU NR4A2 (11747474_a_at) / Fold change /veh NR4A2 (11747474_a_at) / RFU ABCC12 (11746883_a_at) / Fold change /veh ABCC12 (11746883_a_at) / RFU TMEM136 (11760407_x_at) / Fold change /veh TMEM136 (11760407_x_at) / RFU CLDN22 /// WWC2 (11732394_at) / Fold change /veh CLDN22 /// WWC2 (11732394_at) / RFU HLA-DPB1 (11760878_x_at) / Fold change /veh HLA-DPB1 (11760878_x_at) / RFU SPINT1 (11716480_a_at) / Fold change /veh SPINT1 (11716480_a_at) / RFU GAP43 (11754022_s_at) / Fold change /veh GAP43 (11754022_s_at) / RFU A4GNT (11735810_at) / Fold change /veh A4GNT (11735810_at) / RFU PRB3 (11715151_x_at) / Fold change /veh PRB3 (11715151_x_at) / RFU TUBB4B (11761932_at) / Fold change /veh TUBB4B (11761932_at) / RFU CAPN14 (11732068_a_at) / Fold change /veh CAPN14 (11732068_a_at) / RFU TMCC2 (11721928_a_at) / Fold change /veh TMCC2 (11721928_a_at) / RFU IRGQ (11745062_a_at) / Fold change /veh IRGQ (11745062_a_at) / RFU FAM174B (11720279_a_at) / Fold change /veh FAM174B (11720279_a_at) / RFU TMPRSS4 (11748680_a_at) / Fold change /veh TMPRSS4 (11748680_a_at) / RFU FAM212B (11763350_a_at) / Fold change /veh FAM212B (11763350_a_at) / RFU PLEKHG5 (11743358_a_at) / Fold change /veh PLEKHG5 (11743358_a_at) / RFU ZSCAN30 (11745921_a_at) / Fold change /veh ZSCAN30 (11745921_a_at) / RFU CMKLR1 (11741424_a_at) / Fold change /veh CMKLR1 (11741424_a_at) / RFU LOC101060620 /// MAPK8IP1 (11723275_at) / Fold change /veh LOC101060620 /// MAPK8IP1 (11723275_at) / RFU SPTSSB (11747773_x_at) / Fold change /veh SPTSSB (11747773_x_at) / RFU PRSS12 (11739890_at) / Fold change /veh PRSS12 (11739890_at) / RFU BIN1 (11741810_x_at) / Fold change /veh BIN1 (11741810_x_at) / RFU WNT11 (11732464_a_at) / Fold change /veh WNT11 (11732464_a_at) / RFU C10orf10 (11716521_a_at) / Fold change /veh C10orf10 (11716521_a_at) / RFU C5orf56 (11738089_at) / Fold change /veh C5orf56 (11738089_at) / RFU CYB561 (11721691_x_at) / Fold change /veh CYB561 (11721691_x_at) / RFU ANKRD19P (11752326_a_at) / Fold change /veh ANKRD19P (11752326_a_at) / RFU OR2T12 /// OR2T33 /// OR2T8 (11738714_s_at) / Fold change /veh OR2T12 /// OR2T33 /// OR2T8 (11738714_s_at) / RFU VCAN (11748164_a_at) / Fold change /veh VCAN (11748164_a_at) / RFU JSRP1 (11732532_at) / Fold change /veh JSRP1 (11732532_at) / RFU KRTAP10-11 (11738290_x_at) / Fold change /veh KRTAP10-11 (11738290_x_at) / RFU MYO3A (11730013_a_at) / Fold change /veh MYO3A (11730013_a_at) / RFU EBF3 (11725865_a_at) / Fold change /veh EBF3 (11725865_a_at) / RFU CAMK2N1 (11719241_x_at) / Fold change /veh CAMK2N1 (11719241_x_at) / RFU C5orf56 (11738088_a_at) / Fold change /veh C5orf56 (11738088_a_at) / RFU OLFML3 (11715873_a_at) / Fold change /veh OLFML3 (11715873_a_at) / RFU LOC100653217 /// NTM (11731650_a_at) / Fold change /veh LOC100653217 /// NTM (11731650_a_at) / RFU MAPK11 (11762145_a_at) / Fold change /veh MAPK11 (11762145_a_at) / RFU FIZ1 (11724087_x_at) / Fold change /veh FIZ1 (11724087_x_at) / RFU OASL (11726364_x_at) / Fold change /veh OASL (11726364_x_at) / RFU SOX15 (11748057_x_at) / Fold change /veh SOX15 (11748057_x_at) / RFU CD79A (11719716_a_at) / Fold change /veh CD79A (11719716_a_at) / RFU HIST1H1D (11736915_at) / Fold change /veh HIST1H1D (11736915_at) / RFU CASKIN2 (11723855_a_at) / Fold change /veh CASKIN2 (11723855_a_at) / RFU LOC730098 (11760151_x_at) / Fold change /veh LOC730098 (11760151_x_at) / RFU OR4N2 (11742367_at) / Fold change /veh OR4N2 (11742367_at) / RFU PRRT2 (11749266_a_at) / Fold change /veh PRRT2 (11749266_a_at) / RFU SNX32 (11753110_a_at) / Fold change /veh SNX32 (11753110_a_at) / RFU CDHR5 (11726645_a_at) / Fold change /veh CDHR5 (11726645_a_at) / RFU RCAN1 (11760418_a_at) / Fold change /veh RCAN1 (11760418_a_at) / RFU FAM167A (11723789_a_at) / Fold change /veh FAM167A (11723789_a_at) / RFU FAM26E (11764081_at) / Fold change /veh FAM26E (11764081_at) / RFU ISYNA1 (11749810_s_at) / Fold change /veh ISYNA1 (11749810_s_at) / RFU ACY1 (11761880_at) / Fold change /veh ACY1 (11761880_at) / RFU 11764098_at / Fold change /veh 11764098_at / RFU SAMD14 (11745864_x_at) / Fold change /veh SAMD14 (11745864_x_at) / RFU NPB (11741838_a_at) / Fold change /veh NPB (11741838_a_at) / RFU TMPRSS6 (11731388_a_at) / Fold change /veh TMPRSS6 (11731388_a_at) / RFU KRTAP10-2 (11738614_at) / Fold change /veh KRTAP10-2 (11738614_at) / RFU ARHGAP8 /// PRR5-ARHGAP8 (11727945_x_at) / Fold change /veh ARHGAP8 /// PRR5-ARHGAP8 (11727945_x_at) / RFU KRTAP5-7 /// NADSYN1 (11734609_at) / Fold change /veh KRTAP5-7 /// NADSYN1 (11734609_at) / RFU RASL12 (11751679_a_at) / Fold change /veh RASL12 (11751679_a_at) / RFU CDKN2B (11736163_a_at) / Fold change /veh CDKN2B (11736163_a_at) / RFU PRF1 (11729649_at) / Fold change /veh PRF1 (11729649_at) / RFU, ZNF638 /// ZNF638-IT1 / Fold change vs veh, ZNF638 /// ZNF638-IT1 / RFU, PANK3 / Fold change vs veh, PANK3 / RFU, SH3YL1 / Fold change vs veh, SH3YL1 / RFU, ZEB2 / Fold change vs veh, ZEB2 / RFU, NRIP1 / Fold change vs veh, NRIP1 / RFU, PTTG1IP / Fold change vs veh, PTTG1IP / RFU, CAPN2 / Fold change vs veh, CAPN2 / RFU, MED14 / Fold change vs veh, MED14 / RFU, SNORA58 / Fold change vs veh, SNORA58 / RFU, C1orf63 / Fold change vs veh, C1orf63 / RFU, LRRFIP1 / Fold change vs veh, LRRFIP1 / RFU, NDUFAF7 / Fold change vs veh, NDUFAF7 / RFU, SLC12A2 / Fold change vs veh, SLC12A2 / RFU, IBTK / Fold change vs veh, IBTK / RFU, ESF1 / Fold change vs veh, ESF1 / Fold change vs veh, TMEM50B / RFU, TAOK1 / Fold change vs veh, TAOK1 / RFU, ACBD3 / Fold change vs veh, ACBD3 / RFU, TMA16 / Fold change vs veh, TMA16 / RFU, RWDD3 / Fold change vs veh, RWDD3 / RFU, BCAT1 / Fold change vs veh, BCAT1 / RFU, EDEM3 / Fold change vs veh, EDEM3 / RFU, TMEM33 / Fold change vs veh, TMEM33 / RFU, WDR75 / Fold change vs veh, WDR75 / RFU, AHCTF1 / Fold change vs veh, AHCTF1 / RFU, TFRC / Fold change vs veh, TFRC / RFU, ZDHHC17 / Fold change vs veh, ZDHHC17 / RFU, NOM1 / Fold change vs veh, NOM1 / RFU, ARL8B / Fold change vs veh, ARL8B / RFU, ZBTB11 / Fold change vs veh, ZBTB11 / RFU, TAMM41 / Fold change vs veh, TAMM41 / RFU, KIAA1704 /// LOC100996395 / Fold change vs veh, KIAA1704 /// LOC100996395 / RFU, ING1 / Fold change vs veh, ING1 / RFU, TRMT61B / Fold change vs veh, TRMT61B / RFU, FUBP3 / Fold change vs veh, FUBP3 / RFU, TP53 / Fold change vs veh, TP53 / RFU, TNKS2 / Fold change vs veh, TNKS2 / RFU, ZFP14 / Fold change vs veh, ZFP14 / RFU, ACTR2 / Fold change vs veh, ACTR2 / RFU, PPP3R1 / Fold change vs veh, PPP3R1 / RFU, PIK3R1 / Fold change vs veh, PIK3R1 / RFU, HNRNPA1 / Fold change vs veh, HNRNPA1 / RFU, RNF170 / Fold change vs veh, RNF170 / RFU, ZNF28 / Fold change vs veh, ZNF28 / RFU, RNGTT / Fold change vs veh, RNGTT / RFU, OGT / Fold change vs veh, OGT / RFU, BRD1 / Fold change vs veh, BRD1 / RFU, MARS / Fold change vs veh, MARS / RFU, ZNF655 / Fold change vs veh, ZNF655 / RFU, FAHD1 / Fold change vs veh, FAHD1 / RFU, BDP1 / Fold change vs veh, BDP1 / RFU, LRRCC1 / Fold change vs veh, LRRCC1 / RFU, ARID1A / Fold change vs veh, ARID1A / RFU, ZNF146 / Fold change vs veh, ZNF146 / RFU, ZNF330 / Fold change vs veh, ZNF330 / RFU, GPN3 / Fold change vs veh, GPN3 / RFU, C9orf123 / Fold change vs veh, C9orf123 / RFU, N4BP2L2 / Fold change vs veh, N4BP2L2 / RFU, ARFIP1 / Fold change vs veh, ARFIP1 / RFU, FAM179B / Fold change vs veh, FAM179B / RFU, BCL10 / Fold change vs veh, BCL10 / RFU, UHRF1BP1L / Fold change vs veh, UHRF1BP1L / RFU, BET1 / Fold change vs veh, BET1 / RFU, CNOT2 / Fold change vs veh, CNOT2 / RFU, ZNF268 / Fold change vs veh, ZNF268 / Fold change vs veh, ZNF507 / RFU, DGCR2 / Fold change vs veh, DGCR2 / RFU, WDSUB1 / Fold change vs veh, WDSUB1 / Fold change vs veh, HSP90B1 /// MIR3652 / RFU, ADSS / Fold change vs veh, ADSS / RFU, GK / Fold change vs veh, GK / RFU, ZNF148 / Fold change vs veh, ZNF148 / RFU, TAF9 / Fold change vs veh, TAF9 / RFU, SLC1A5 / Fold change vs veh, SLC1A5 / RFU, SLMO2 / Fold change vs veh, SLMO2 / RFU, ABCC4 / Fold change vs veh, ABCC4 / RFU, LOC101060439 /// RAP1B / Fold change vs veh, LOC101060439 /// RAP1B / RFU, RFX7 / Fold change vs veh, RFX7 / RFU, GTPBP10 / Fold change vs veh, GTPBP10 / RFU, CNEP1R1 / Fold change vs veh, CNEP1R1 / RFU, BIVM-ERCC5 /// ERCC5 / Fold change vs veh, BIVM-ERCC5 /// ERCC5 / RFU, ILF3 / Fold change vs veh, ILF3 / RFU 11762660_at / Fold change /veh 11762660_at / RFU VCAN (11757783_s_at) / Fold change /veh VCAN (11757783_s_at) / RFU DDX43 (11728927_at) / Fold change /veh DDX43 (11728927_at) / RFU KRT8 (11758188_x_at) / Fold change /veh KRT8 (11758188_x_at) / RFU NKD1 (11759106_at) / Fold change /veh NKD1 (11759106_at) / RFU SRD5A1 (11742802_a_at) / Fold change /veh SRD5A1 (11742802_a_at) / RFU TPSAB1 /// TPSB2 (11721975_s_at) / Fold change /veh TPSAB1 /// TPSB2 (11721975_s_at) / RFU GSTM3 (11746129_a_at) / Fold change /veh GSTM3 (11746129_a_at) / RFU IL23R (11737362_x_at) / Fold change /veh IL23R (11737362_x_at) / RFU TMEM51 (11727254_a_at) / Fold change /veh TMEM51 (11727254_a_at) / RFU PIWIL2 (11732686_x_at) / Fold change /veh PIWIL2 (11732686_x_at) / RFU ORM1 (11744905_x_at) / Fold change /veh ORM1 (11744905_x_at) / RFU CCDC152 (11743942_at) / Fold change /veh CCDC152 (11743942_at) / RFU ECM1 (11717891_a_at) / Fold change /veh ECM1 (11717891_a_at) / RFU IL23R (11748794_a_at) / Fold change /veh IL23R (11748794_a_at) / RFU TNFAIP8L3 (11732012_x_at) / Fold change /veh TNFAIP8L3 (11732012_x_at) / RFU MBOAT4 (11741988_at) / Fold change /veh MBOAT4 (11741988_at) / RFU 11764193_at / Fold change /veh 11764193_at / RFU TMEM53 (11763286_at) / Fold change /veh TMEM53 (11763286_at) / RFU MAGEB2 (11727129_at) / Fold change /veh MAGEB2 (11727129_at) / RFU TMEM200A (11744735_a_at) / Fold change /veh TMEM200A (11744735_a_at) / RFU CCDC152 (11751479_a_at) / Fold change /veh CCDC152 (11751479_a_at) / RFU FAM211A (11726209_a_at) / Fold change /veh FAM211A (11726209_a_at) / RFU RGS16 (11746705_a_at) / Fold change /veh RGS16 (11746705_a_at) / RFU VCAN (11755009_s_at) / Fold change /veh VCAN (11755009_s_at) / RFU RHOB (11743442_s_at) / Fold change /veh RHOB (11743442_s_at) / RFU RGS16 (11720943_a_at) / Fold change /veh RGS16 (11720943_a_at) / RFU RGS16 (11720944_at) / Fold change /veh RGS16 (11720944_at) / RFU, VPS4B / Fold change vs veh, VPS4B / RFU, CREB1 / Fold change vs veh, CREB1 / RFU, DNAJC13 / Fold change vs veh, DNAJC13 / RFU, GNAQ / Fold change vs veh, GNAQ / RFU, CDK5R1 / Fold change vs veh, CDK5R1 / RFU, ZRANB3 / Fold change vs veh, ZRANB3 / RFU, CUL4A / Fold change vs veh, CUL4A / RFU, CCNY / Fold change vs veh, CCNY / RFU, UFL1 / Fold change vs veh, UFL1 / RFU, COG3 / Fold change vs veh, COG3 / RFU, DIAPH2 / Fold change vs veh, DIAPH2 / RFU, SKA2 / Fold change vs veh, SKA2 / RFU, AFF3 / Fold change vs veh, AFF3 / RFU, LMF1 / Fold change vs veh, LMF1 / RFU, IPO11 / Fold change vs veh, IPO11 / RFU, DFFB / Fold change vs veh, DFFB / RFU, FOXP1 / Fold change vs veh, FOXP1 / RFU, CARD8 / Fold change vs veh, CARD8 / RFU, STRN3 / Fold change vs veh, STRN3 / RFU, ADK / Fold change vs veh, ADK / RFU, RASSF2 / Fold change vs veh, RASSF2 / RFU, WIPF1 / Fold change vs veh, WIPF1 / RFU, LARP1B / Fold change vs veh, LARP1B / RFU, RASA1 / Fold change vs veh, RASA1 / RFU, RB1 / Fold change vs veh, RB1 / RFU, PPFIA1 / Fold change vs veh, PPFIA1 / RFU, MAT2A / Fold change vs veh, MAT2A / RFU, CCT5 / Fold change vs veh, CCT5 / RFU, WDR92 / Fold change vs veh, WDR92 / RFU, CUX1 / Fold change vs veh, CUX1 / RFU, TTC7A / Fold change vs veh, TTC7A / RFU, TMEM135 / Fold change vs veh, TMEM135 / RFU, DEPTOR / Fold change vs veh, DEPTOR / RFU, CPM / Fold change vs veh, CPM / RFU, DNAJB6 / Fold change vs veh, DNAJB6 / RFU, CACNA2D3 / Fold change vs veh, CACNA2D3 / RFU, DTX4 / Fold change vs veh, DTX4 / RFU, TFCP2 / Fold change vs veh, TFCP2 / RFU, GMCL1 /// GMCL1P1 / Fold change vs veh, GMCL1 /// GMCL1P1 / RFU, AEBP2 / Fold change vs veh, AEBP2 / RFU, SNHG1 /// SNORD22 /// SNORD25 /// SNORD26 /// SNORD27 /// SNORD28 /// SNORD29 /// SNORD31 / Fold change vs veh, SNHG1 /// SNORD22 /// SNORD25 /// SNORD26 /// SNORD27 /// SNORD28 /// SNORD29 /// SNORD31 / Fold change (Aza/veh), C12orf56 (ProbeSet 11735607_a_at) / Fold change (ACY-1035/veh), C12orf56 (ProbeSet 11735607_a_at) / Fold change (Aza/veh), FGFR1OP (ProbeSet 11751329_s_at) / Fold change (ACY-1035/veh), FGFR1OP (ProbeSet 11751329_s_at) / Fold change (Aza/veh), VPS36 (ProbeSet 11739960_a_at) / Fold change (ACY-1035/veh), VPS36 (ProbeSet 11739960_a_at) / RFU SYPL1 (11715823_x_at) / Fold change /veh SYPL1 (11715823_x_at) / RFU IGFBP7 (11715501_s_at) / Fold change /veh IGFBP7 (11715501_s_at) / RFU REEP3 (11722064_at) / Fold change /veh REEP3 (11722064_at) / RFU IGLL1 (11728026_x_at) / Fold change /veh IGLL1 (11728026_x_at): dose or concentration left out as unconfirmed
Conditions: MV-4-11 cells, 48 hours

Nc1ncn([C@@H]2O[C@H](CO)[C@@H](O)[C@H]2O)c(=O)n1 [azacitidine]
RFU RCAN1 (11760418_a_at): 18.64 RFU
